The values that follow come from patent publication US10292382B2, “No-spin cryopreservation technique and resulting products” (Biopredic International, priority 2014, dated 2019).

The structures appear in SMILES notation.

Series [1] concerns cells. Particulars: above 4° C.; cited from earlier work.
Series [2] relates to Fresh human hepatocytes.
Experimental: In this Example, testing was carried out to determine the effect of different concentrations of DMSO (0 to 2%) on the cell plateability/attachment using the inventive, direct NS plating method.
Fresh human hepatocytes having 78% viability, corresponding generally to customary thawed cell viability, were plated with DMSO in concentrations ranging from 0 to 2%. The cells were plated without Percoll density gradient centrifugation for both classical and NS methods. The cell seeding density was 0.37 million cells/well (MW24 plate) for both classical & NS methods. The cells were evaluated for cell morphology, plateability, and metabolic activity.
The DMSO, as a cryoprotectant included in freezing medium, has been tested at final concentrations up to 2% in the cell plating medium.

In the case of `C[S+](C)[O-]` [DMSO, dimethyl sulfoxide], the “DMSO concentration demonstrated to be toxic” value in series [1] was “up to 2%”. Moreover, the “maximum tolerated DMSO percentage in hepatocyte-NS plating medium for cell attachment” value in series [2] is reported as “less than 1 % (v/v)”.
